In US20030118510A1 (priority 2001, published 2003):

What was measured:
[1] = tested on: blood glucose; experiment: Blood glucose following intratracheal administration of 2K PEG insulin in rats (Example 12, P-2002-010); assay type: in vivo, male rats; conditions: i.t.
Text: Fourteen (N=7/Group) fasted male rats (Hilltop Lab Animals, Scottsdale, Pa. (300-350 g)) with indwelling jugular vein catheters (JVC) were used for this study. […] Animal 2-3 was dropped from the study due to a clogged catheter.

[2] = tested on: blood glucose; experiment: Blood glucose following intratracheal administration of 750-1 PEG insulin in rats (Example 9, P-2001-025); assay type: in vivo, male rats; conditions: i.t.
Protocol: (§1) The rats were lightly anesthetized using inhaled 3.0-5.0% Isoflurane (Abbott Laboratories) mixed with oxygen for approximately 5 minutes in a plexiglass anesthesia chamber. Administration was accomplished by insertion of a gavage needle (Popper & Sons Inc.; 18×3″ W2-¼ mm ball, New Hyde Park, N.Y. 11040) fitted into a 1 mL syringe into the mouth of the rat down the trachea to just above the main carina. When inserting the gavage needle into the trachea, proper insertion was detected by feeling for the roughness of the cartilage rings under the skin of the throat using the ball of the gavage needle. Doses were administered into the lungs utilizing this method, and followed by removal of the gavage needle.
(§2) Fourteen (N=7/Group) fasted male rats (Hilltop Lab Animals, Scottsdale, Pa. (300-350 g)) with indwelling jugular vein catheters (JVC) were used for this study.
(§3) The in-vivo rat study was conducted essentially as described in Example 8 above.

[3] = tested on: blood glucose; experiment: Blood glucose following intratracheal administration of 750-1 PEG insulin in rats (Example 10, P-2002-001); assay type: in vivo, male rats; conditions: i.t.
Protocol: as §1, §2
The in-vivo intratracheal rat study was conducted essentially as described in Example 8 above.

[4] = Intratracheal administration of 750-2 PEG insulin in rats (Example 11, P-2002-003)
Protocol: as §1, §2, §3
Absolute bioavailability was calculated as follows: [formula]

[5] = tested on: blood glucose; conditions: rats, 20, 30, 40 μg/animal
[6] = tested on: blood glucose; conditions: i.t.
Protocol: as §1, §2

2K PEG insulin: insulin pegylated in non-site specific (random) fashion with linear mPEG-succinimidyl propionate ~2,000 Daltons; mixture of mono and di-pegylated product
glucose levels at time points past about 6 hours compared with non-pegylated insulin ([1]; 600 μg, 900 μg and 1200 μg per animal): suppressed significantly below those of non-pegylated insulin
dose response of decrease in blood glucose concentration ([1]; 300-1200 μg/animal): Good dose response
time point at which maximum glucose suppression was achieved ([1]; Example 12): about 3 hours

750-1 PEG insulin: 750 PEG insulin composition prepared at molar ratio of PEG reagent (mPEG-SPA-750) to insulin of 7:1
glucose suppression over the 12 hour period compared with unmodified insulin ([2]; Example 9): significantly increased
onset of action (suppression of glucose) ([2]; Example 9): rapid onset of action comparable to native insulin
time at which glucose levels had not yet returned (duration of glucose suppression) ([2]; Example 9): > 12 h
time to reach maximum glucose lowering ([2]; Example 9, 100 μg dose): ≥ 6 h
time to reach maximum glucose lowering ([2]; Example 9, 300 μg dose): ≥ 8 h
time to reach maximum glucose lowering ([2]; Example 9, 500 μg dose): at least 4 hours
duration of glucose suppression ([3]; Example 10, 80 and 160 μg/animal): > 25 h
glucose levels at 8 hours, times lower than for unmodified insulin ([3]; Example 10, 8 hours): about 1.5 times
mean serum insulin and mean blood glucose concentrations following intratracheal instillation (FIG. 10, FIG. 11) ([4]; i.t., 80 μg/animal): Results similar to those in Examples 9 and 10

750-2 PEG insulin: 750 PEG insulin composition prepared at molar ratio of PEG reagent (mPEG-SPA-750) to insulin of 3:1
TMax ([4]; rat, in vivo): 1.22 h

N^αB1-Methoxypoly(ethylene glycol)5K- propionamido-insulin [5K PEG insulin]
bioactivity (ability to lower blood glucose) ([5]; i.v.): possesses bioactivity
glucose levels following i.v. administration [5]: dose dependent decrease
lowering of blood glucose compared with non-pegylated insulin ([6]; 150 μg/animal vs non-pegylated insulin 40 μg/animal): less effective than non-pegylated insulin
lowering of blood glucose when administered to the lung ([6]; 150 μg/animal, male rats): effective in lowering blood glucose
